Results as given in patent US20240315991A1, “USES OF HNF4 ALPHA AGONISTS” (Sanford Burnham Prebys Medical Discovery Institute, priority 2023, published 2024).

What was measured:
HNF4α [1] = biological target: T1, HNF4α (Mus musculus, UniProt P49698); assay: HNF4α immunofluorescence of liver sections; assay type: in vivo; details: C57BL/6 mice, HFD containing 4000 ppm NCT (approximately 400 mg/kg/d), oral, 10 weeks, vs HFD
T1 construct: from tissue; host or cells: liver of C57BL/6J mice
Method: NCT oral administration. Four-week-old male C57BL/6J (JAX cat #000664) mice were purchased from Jackson laboratory and were maintained in a 12 h light/dark cycle throughout the experiment. Prior to the experiments, mice were acclimated for 2 weeks. Six-week-old mice with similar body weights were randomized to a normal diet (NC), a high fat diet (HFD) (Research Diets, cat #D12492 60 kcal % fat) or HFD containing 4000 ppm NCT (HFD+NCT) (Research Diets, 60 kcal % fat+4000 ppm NCT), which was calculated to provide approximately 400 mg/kg/d NCT. HFD chow containing NCT was made with gray dye to distinguish it from regular HFD chow that had green dye. Mice for each treatment group were placed in separate cages. […] Body weight gain and food intake were measured every week for 10 weeks. […]
Immunofluorescence. […] Slides were mounted using fluorescence mounting medium and images were obtained at ×40 magnification using an Olympus IX71 fluorescence microscope. Fluorescence intensity of HNF4α-stained nuclei and VDAC stained mitochondria was calculated using MetaMorph TL software (version 7.6.5.0, Olympus). Fold change was calculated by normalizing to values from mice fed NC.
C57BL/6 mice were fed normal chow (NC), a high fat diet (HFD), or a high fat diet containing 4000 ppm NCT (HFD+NCT) for 10 weeks. […] The fold change was calculated vs. NC (NC, N=3, HFD and HFD+NCT, N=12). […]

hepatic cytochrome C = assay: Western blotting of liver, cytochrome C; assay type: in vivo, mouse; details: HFD+NCT vs HFD, FIGS. 3D-3F
Method: (§1) NCT oral administration. Four-week-old male C57BL/6J (JAX cat #000664) mice were purchased from Jackson laboratory and were maintained in a 12 h light/dark cycle throughout the experiment. Prior to the experiments, mice were acclimated for 2 weeks. Six-week-old mice with similar body weights were randomized to a normal diet (NC), a high fat diet (HFD) (Research Diets, cat #D12492 60 kcal % fat) or HFD containing 4000 ppm NCT (HFD+NCT) (Research Diets, 60 kcal % fat+4000 ppm NCT), which was calculated to provide approximately 400 mg/kg/d NCT. HFD chow containing NCT was made with gray dye to distinguish it from regular HFD chow that had green dye. Mice for each treatment group were placed in separate cages. Equal amounts of fresh chow were provided every week to all mice. Body weight gain and food intake were measured every week for 10 weeks. After 10 weeks of chow treatment, mice were sacrificed for analysis. All animal experiments were approved by the Institutional Animal Care and Use Committee (IACUC) of the Sanford Burnham Prebys Medical Discovery Institute in accordance with national regulations. Sample size was chosen based on the prior study of NCT delivered by IP injection.
(§2) Western blotting. Mouse liver extracts were prepared by incubation in RIPA buffer (Invitrogen) containing protease inhibitors (Calbiochem, SanDiego, CA). Protein was quantified by BCA assay (Thermo Scientific). […]

SDHA = assay: Western blotting of liver, SDHA; assay type: in vivo, mouse; details: HFD+NCT vs HFD, FIGS. 3D-3F
Method: as §1, §2

Sirt1 mRNA = assay: RT-PCR of mouse liver, Sirtuin1; assay type: in vivo; details: HFD+NCT vs HFD, FIG. 4D
Method: NCT oral administration. Four-week-old male C57BL/6J (JAX cat #000664) mice were purchased from Jackson laboratory and were maintained in a 12 h light/dark cycle throughout the experiment. Prior to the experiments, mice were acclimated for 2 weeks. Six-week-old mice with similar body weights were randomized to a normal diet (NC), a high fat diet (HFD) (Research Diets, cat #D12492 60 kcal % fat) or HFD containing 4000 ppm NCT (HFD+NCT) (Research Diets, 60 kcal % fat+4000 ppm NCT), which was calculated to provide approximately 400 mg/kg/d NCT. HFD chow containing NCT was made with gray dye to distinguish it from regular HFD chow that had green dye. Mice for each treatment group were placed in separate cages. Equal amounts of fresh chow were provided every week to all mice. Body weight gain and food intake were measured every week for 10 weeks. After 10 weeks of chow treatment, mice were sacrificed for analysis. […]
RT-PCR. […] Quantitative real time PCR (RT-PCR) analysis was performed using SYBR® Select Master Mix (Applied Biosystems) and an ABI 7900HT thermal cycler (Applied Biosystems, Thermo Fisher Scientific). Ct values were normalized to 18s rRNA and are expressed as fold change over samples from mice fed NC or cultured human hepatocytes without NCT.

HNF4α [2] = biological target: T2, HNF4α (Homo sapiens, UniProt P41235); details: cited from earlier work
T2 sequence (P41235 1-474): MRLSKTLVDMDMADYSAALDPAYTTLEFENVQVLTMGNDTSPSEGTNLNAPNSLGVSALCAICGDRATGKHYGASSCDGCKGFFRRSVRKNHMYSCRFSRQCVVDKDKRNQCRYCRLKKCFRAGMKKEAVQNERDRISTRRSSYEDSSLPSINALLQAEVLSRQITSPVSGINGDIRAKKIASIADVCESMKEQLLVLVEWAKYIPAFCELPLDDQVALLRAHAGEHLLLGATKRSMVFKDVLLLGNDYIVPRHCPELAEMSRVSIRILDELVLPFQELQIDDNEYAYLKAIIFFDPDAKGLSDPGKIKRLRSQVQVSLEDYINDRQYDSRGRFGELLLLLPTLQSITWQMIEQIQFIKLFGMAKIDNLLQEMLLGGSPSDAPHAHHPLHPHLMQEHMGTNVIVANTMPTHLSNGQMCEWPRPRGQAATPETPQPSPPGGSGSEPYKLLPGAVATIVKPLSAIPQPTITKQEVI

T1 sequence (P49698 whole entry): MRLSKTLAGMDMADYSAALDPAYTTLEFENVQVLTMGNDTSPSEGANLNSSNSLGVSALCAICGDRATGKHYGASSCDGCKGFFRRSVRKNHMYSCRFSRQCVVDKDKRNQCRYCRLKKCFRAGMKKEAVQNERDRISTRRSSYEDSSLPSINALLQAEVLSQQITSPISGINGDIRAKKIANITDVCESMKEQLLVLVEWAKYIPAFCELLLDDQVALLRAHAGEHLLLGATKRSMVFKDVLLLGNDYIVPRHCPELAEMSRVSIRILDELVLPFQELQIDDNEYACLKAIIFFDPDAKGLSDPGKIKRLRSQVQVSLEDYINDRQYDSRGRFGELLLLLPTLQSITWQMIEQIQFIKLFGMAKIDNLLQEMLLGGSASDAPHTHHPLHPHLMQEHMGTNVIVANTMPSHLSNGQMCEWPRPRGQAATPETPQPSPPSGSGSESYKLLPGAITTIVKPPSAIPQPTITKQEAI

Which results are given for `O=C(/C=C/c1ccc(O)c(O)c1)NCCc1ccc(O)cc1` [NCT, N-trans caffeoyltyramine]?
HNF4α expression in liver (HNF4α fluorescence intensity) (HNF4α [1]): reversed; hepatic cytochrome C protein level (hepatic cytochrome C): reverse the depression; SDHA protein level in liver (SDHA): reverse the depression; Sirt1 mRNA in mouse liver (Sirt1 mRNA): reverse the depression; specificity for HNF4α (HNF4α [2]; HNF4α siRNA ablates their effect): exhibit specificity for HNF4α; activation of HNF4α, potency compared with Alverine and Benfluorex (HNF4α [2]): much more potent activators
